Assay results from patent US7223771B2, “Tricyclic imidazopyridines” (Altana Pharma AG, priority 2001, dated 2007).

test system: pentagastrin-stimulated acid secretion of the perfused rat stomach; settings: anesthetized CD rat, dose 3.0 μmol/kg i.d. (intraduodenal)
Text: Testing of the Secretion-Inhibiting Action on the Perfused Rat Stomach
The abdomen of anesthetized rats (CD rat, female, 200–250 g; 1.5 g/kg i.m. urethane) was opened after tracheotomy by a median upper abdominal incision and a PVC catheter was fixed transorally in the esophagus and another via the pylorus such that the ends of the tubes just projected into the gastric lumen. The catheter leading from the pylorus led outward into the right abdominal wall through a side opening.
After thorough rinsing (about 50–100 ml), warm (37° C.) physiological NaCl solution was continuously passed through the stomach (0.5 ml/min, pH 6.8–6.9; Braun-Unita I). The pH (pH meter 632, glass electrode EA 147; φ=5 mm, Metrohm) and, by titration with a freshly prepared 0.01N NaOH solution to pH 7 (Dosimat 665 Metrohm), the secreted HCl were determined in the effluent in each case collected at an interval of 15 minutes.
The gastric secretion was stimulated by continuous infusion of 1 μg/kg (=1.65 ml/h) of i.v. pentagastrin (left femoral vein) about 30 min after the end of the operation (i.e. after determination of 2 preliminary fractions). The substances to be tested were administered intraduodenally in a 2.5 ml/kg liquid volume 60 min after the start of the continuous pentagastrin infusion.
The body temperature of the animals was kept at a constant 37.8–38° C. by infrared irradiation and heat pads (automatic, stepless control by means of a rectal temperature sensor).

| SMILES | Inhibition of acid secretion [%] |
| --- | --- |
| CCN(CC)C(=O)c1cn2c(C)c(C)nc2c2c1CCC(c1ccccc1)O2 (stereo not drawn) [Example 1, 2,3-Dimethyl-9-phenyl-7H-8,9-dihydro-pyrano-[2,3-c]-N-(diethyl)imidazo[1,2-a]pyridine-6-carboxamide] | 100 |
| CCOC(=O)c1cn2c(C)c(C)nc2c2c1CCC(c1ccccc1)O2 (stereo not drawn) [Example 2, Ethyl 2,3-dimethyl-9-phenyl-7H-8,9-dihydro-pyrano[2,3-c]-imidazo[1,2-a]pyridine-6-carboxylate] | 100 |
| Cc1nc2c3c(c(C(=O)N(C)C)cn2c1C)CCC(c1ccccc1)O3 (stereo not drawn) [Example 3, 2,3-Dimethyl-9-phenyl-7H-8,9-dihydro-pyrano[2,3-c]-imidazo[1,2-a]pyridine-6-(N,N-dimethyl)carbamide] | 100 |
